Assay results: publication PMC12277314, “Design, synthesis, and anti-inflammatory potential of PROTAC drug molecules based on fondaparinux sodium” (Frontiers in Bioengineering and Biotechnology, 2025)
Entries after “also recorded” stand apart in the source; their conditions may differ.

Assays:
IL-6 = IL-6 (Homo sapiens, UniProt P05231); assay: SPR binding to immobilized IL-6; settings: CM5 chip, 1:1 binding model, 0.38-12.50 µM analyte
Method: (§1) SPR was used to evaluate the binding affinity between the PROTAC molecules and the target proteins. Target proteins CCL5 and IL-6 were immobilized on a CM5 sensor chip via amine coupling, with unreacted sites blocked using ethanolamine (pH 8.5). The PROTAC molecules were injected at concentrations ranging from 0.38 µM to 12.50 µM in PBS-P running buffer (0.02 M phosphate buffer, 137 mM NaCl, 2.7 mM KCl, 0.2% DMSO, 0.05% P20, pH 7.4). Each injection lasted 120 s (association phase) followed by a 300-s dissociation phase at a flow rate of 30 μL/min. Data were analyzed using Biacore Insight Evaluation Software with a 1:1 binding model to determine KD values. In addition to the 1:1 Langmuir model, we tested bivalent-analyte and heterogeneous-ligand models. Both alternatives yielded substantially larger residuals and poorer overall fits, confirming the 1:1 Langmuir model as the most suitable for our sensorgram data.
(§2) To comprehensively assess the biological functionality of the PROTAC molecules, binding kinetics with the target proteins CCL5 and IL-6 were investigated using the Biacore 8K^+ system. CCL5 and IL-6—key inflammatory mediators—were immobilized on a CM5 sensor chip (9000 RU) via amine coupling, and kinetic parameters were calculated using a 1:1 binding model.

[1] = tested on: IL-1β release, peripheral blood mononuclear cells (PBMCs); assay: LPS-induced IL-1β release in PBMCs (ELISA); type: cell-based, Human; settings: 100 nM-10 μM
Method: (§3) Human PBMCs were isolated from buffy coats (procured from Uppsala University Hospital, Sweden) using Ficoll density gradient centrifugation and stored at −150°C. Thawed PBMCs were cultured in Dulbecco’s Modified Eagle Medium (DMEM) supplemented with 10% fetal bovine serum (FBS) and 5% PeSt in a CO2 incubator. Cells were seeded in 24-well plates (0.5–1 × 10^6 cells/well in 1 mL medium). PROTAC analogs and FS were added at 10 μM, 1 μM, and 100 nM. Two setups were employed: one receiving only the compounds, and another in which LPS (20 ng/mL) was added 2 h after compound treatment. After 24 h, supernatants were collected for cytokine quantification by ELISA.
(§4) All quantitative data are presented as mean ± SD. Sample size for each assay was n = 3 biological replicates. For multi-group comparisons, one-way ANOVA followed by Tukey’s post hoc test was used; for two-group comparisons, two-tailed, unpaired Student’s t-test was applied. P < 0.05 was considered significant.

[2] = tested on: inflammatory cytokines (IL-1β and TNF-α), PBMCs; assay: LPS-induced cytokine secretion in PBMCs, cytokines overall; type: cell-based, Human; settings: 100 nM-10 μM
Method: as §3, §4

CCL5 = target: T1, CCL5 (Homo sapiens, UniProt P13501); assay: SPR binding to immobilized CCL5; settings: for Kd: CM5 chip, 1:1 binding model, 0.38-12.50 µM analyte
T1 sequence (P13501 24-91): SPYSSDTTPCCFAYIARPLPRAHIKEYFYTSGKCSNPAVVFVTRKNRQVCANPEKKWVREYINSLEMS
Method: as §1, §2

[3] = tested on: TNF-α release, peripheral blood mononuclear cells (PBMCs); assay: LPS-induced TNF-α release in PBMCs (ELISA); type: cell-based, Human; settings: 100 nM-10 μM
Method: as §3, §4

[4] = tested on: colonic TNF-α and IL-1β levels; set-up: method as in Xu et al., 2024; settings: murine colitis model; ref Xu et al., 2024; cited from earlier work

Sequence of IL-6 (P05231 30-212, species assumed): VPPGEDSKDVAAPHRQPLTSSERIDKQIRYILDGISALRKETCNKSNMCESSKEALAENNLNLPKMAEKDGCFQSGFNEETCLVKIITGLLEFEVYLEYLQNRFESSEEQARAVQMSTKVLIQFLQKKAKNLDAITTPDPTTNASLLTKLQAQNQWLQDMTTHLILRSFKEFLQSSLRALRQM

Structure (SMILES) | Kd (IL-6) | effect on LPS-induced IL-1β release (in words) [1] | effect on LPS-induced cytokine secretion (in words) [2] | binding to CCL5 (in words) (CCL5; negative control) | Kd (CCL5) | effect on LPS-induced TNF-α (in words) [3] | colonic TNF-α and IL-1β levels [4]
CO[C@H]1O[C@H](COS(=O)(=O)O)[C@@H](O[C@@H]2O[C@@H](C(=O)O)[C@@H](O[C@H]3O[C@H](COS(=O)(=O)O)[C@@H](O[C@@H]4O[C@H](C(=O)O)[C@@H](O[C@H]5O[C@H](COS(=O)(=O)O)[C@@H](O)[C@H](O)[C@H]5NS(=O)(=O)O)[C@H](O)[C@H]4O)[C@H](OS(=O)(=O)O)[C@H]3NS(=O)(=O)O)[C@H](O)[C@H]2OS(=O)(=O)O)[C@H](O)[C@H]1NS(=O)(=O)O [FS, Fondaparinux Sodium] | 13.5 µM | no effect | did not elicit significant changes | no binding | – | – | –
CO[C@H]1O[C@H](COS(=O)(=O)O)[C@@H](O[C@@H]2O[C@@H](C(=O)NCCCCCCCNc3cccc4c3C(=O)N(C3CCC(=O)NC3=O)C4=O)[C@@H](OC3O[C@H](COS(=O)(=O)O)[C@@H](O[C@@H]4O[C@H](C(=O)NCCCCCCCNc5cccc6c5C(=O)N(C5CCC(=O)NC5=O)C6=O)[C@@H](O[C@H]5O[C@H](COS(=O)(=O)O)[C@@H](O)[C@H](O)[C@H]5NS(=O)(=O)O)[C@H](O)[C@H]4O)[C@H](OS(=O)(=O)O)[C@H]3NS(=O)(=O)O)[C@H](O)[C@H]2OS(=O)(=O)O)[C@H](O)[C@H]1NS(=O)(=O)O (some centres unmarked) [Product 6] | 8.27 µM | significantly inhibited | significant inhibition; also recorded: concentration-dependent suppression | – | 4.75 µM | – | –
CO[C@H]1O[C@H](COS(=O)(=O)O)[C@@H](O[C@@H]2O[C@@H](C(=O)NCCCCCc3cccc4c3CN(C3CCC(=O)NC3=O)C4=O)[C@@H](OC3O[C@H](COS(=O)(=O)O)[C@@H](O[C@@H]4O[C@H](C(=O)NCCCCCc5cccc6c5CN(C5CCC(=O)NC5=O)C6=O)[C@@H](O[C@H]5O[C@H](COS(=O)(=O)O)[C@@H](O)[C@H](O)[C@H]5NS(=O)(=O)O)[C@H](O)[C@H]4O)[C@H](OS(=O)(=O)O)[C@H]3NS(=O)(=O)O)[C@H](O)[C@H]2OS(=O)(=O)O)[C@H](O)[C@H]1NS(=O)(=O)O (some centres unmarked) [Product 8] | – | no significant effect; also recorded: not statistically significant | did not elicit significant changes; also recorded: limited anti-inflammatory activity | – | 9.48 µM | mild inhibition; also recorded: minimal | –
O=C(/C=C/C(=O)Nc1ccc(NC(=O)c2ccc([N+](=O)[O-])o2)cc1)NCCCCCCNc1cccc2c1C(=O)N(C1CCC(=O)NC1=O)C2=O (centres unmarked) [SP23] | – | – | – | – | – | – | reduced
CO[C@H]1O[C@H](COS(=O)(=O)O)[C@@H](O[C@@H]2O[C@@H](C(=O)NCCCCCNc3cccc4c3C(=O)N(C3CCC(=O)NC3=O)C4=O)[C@@H](OC3O[C@H](COS(=O)(=O)O)[C@@H](O[C@@H]4O[C@H](C(=O)NCCCCCNc5cccc6c5C(=O)N(C5CCC(=O)NC5=O)C6=O)[C@@H](O[C@H]5O[C@H](COS(=O)(=O)O)[C@@H](O)[C@H](O)[C@H]5NS(=O)(=O)O)[C@H](O)[C@H]4O)[C@H](OS(=O)(=O)O)[C@H]3NS(=O)(=O)O)[C@H](O)[C@H]2OS(=O)(=O)O)[C@H](O)[C@H]1NS(=O)(=O)O (some centres unmarked) [Product 10] | 1.54 µM | significantly inhibited | significant inhibitory effect; also recorded: concentration-dependent suppression | – | 11.3 µM | – | –
